# Results taken from PubChem BioAssay (NCI).
#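 All cell lines were grown in 96-well plates and treated with compound for 48 hours. Definition used: TGI = concentration required for complete inhibition of growth.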 Where a SMILES comes first, the peptide text is derived from it. [ ]: non-standard residue; d: D form. The star is where a group is joined. Boc = CC(C)(C)OC(=O)*; Lac = C[CH](O)C(=O)O; OBn = c1ccc(CO*)cc1
# Tested on: HOP-92 NSCLC
# Experiment: NCI-60 cell line screen, 48 h
row,Compound,TGI
1,CN(C)c1ccc(C2CC(c3ccc4ccccc4c3O)=NN2)cc1 (centres undefined),> 100 µM
2,CN1CCc2cc3c(c4c2C1C(O)c1ccccc1-4)OCO3 (centres undefined),7.22 µM
3,CC(OC(=O)C(Cc1ccccc1)NC(=O)C(Cc1ccccc1)NC(=O)OC(C)(C)C)C(=O)OCc1ccccc1 (stereo not drawn) (Boc-Phe-Phe-[Lac]-OBn; configuration not given here),> 100 µM

# Tested on: HS 578T breast
# Experiment: NCI-60 cell line screen, 48 h
row,Compound,TGI
1,CC1=NN(c2nc(N)nc(/C(C#N)=C/c3ccccc3O)n2)C(C)(C)C1,35.4 µM
2,Cc1c(-c2ccc(O)cc2)n(CCCCCCNCCOC(=O)NCCCc2ccc(N(CCCl)CCCl)cc2)c2ccc(O)cc12,7.49 µM
3,COc1ccc(NC(=S)Nc2cc(C)cc(C)n2)cc1,> 100 µM
4,CN(C)c1ccc(C2CC(c3ccc4ccccc4c3O)=NN2)cc1 (centres undefined),> 100 µM
5,CN1CCc2cc3c(c4c2C1C(O)c1ccccc1-4)OCO3 (centres undefined),19.5 µM
6,C1=CC2(C=CC13O[C@H](C1CCCCC1)[C@@H](C1CCCCC1)O3)O[C@H](C1CCCCC1)[C@@H](C1CCCCC1)O2,> 50 µM
7,CC(OC(=O)C(Cc1ccccc1)NC(=O)C(Cc1ccccc1)NC(=O)OC(C)(C)C)C(=O)OCc1ccccc1 (stereo not drawn) (Boc-Phe-Phe-[Lac]-OBn; configuration not given here),> 100 µM

# Tested on: HT29 colon
# Experiment: NCI-60 cell line screen, 48 h
row,Compound,TGI
1,CC1=NN(c2nc(N)nc(/C(C#N)=C/c3ccccc3O)n2)C(C)(C)C1,42.6 µM
2,Cc1c(-c2ccc(O)cc2)n(CCCCCCNCCOC(=O)NCCCc2ccc(N(CCCl)CCCl)cc2)c2ccc(O)cc12,3.09 µM
3,COc1ccc(NC(=S)Nc2cc(C)cc(C)n2)cc1,> 100 µM
4,CN(C)c1ccc(C2CC(c3ccc4ccccc4c3O)=NN2)cc1 (centres undefined),> 100 µM
5,CN1CCc2cc3c(c4c2C1C(O)c1ccccc1-4)OCO3 (centres undefined),18.3 µM
6,C1=CC2(C=CC13O[C@H](C1CCCCC1)[C@@H](C1CCCCC1)O3)O[C@H](C1CCCCC1)[C@@H](C1CCCCC1)O2,> 50 µM

# Tested on: IGROV1 ovarian
# Experiment: NCI-60 cell line screen, 48 h
row,Compound,TGI
1,CC1=NN(c2nc(N)nc(/C(C#N)=C/c3ccccc3O)n2)C(C)(C)C1,45.5 µM
2,Cc1c(-c2ccc(O)cc2)n(CCCCCCNCCOC(=O)NCCCc2ccc(N(CCCl)CCCl)cc2)c2ccc(O)cc12,5.9 µM
3,COc1ccc(NC(=S)Nc2cc(C)cc(C)n2)cc1,> 100 µM
4,CN(C)c1ccc(C2CC(c3ccc4ccccc4c3O)=NN2)cc1 (centres undefined),> 100 µM
5,CN1CCc2cc3c(c4c2C1C(O)c1ccccc1-4)OCO3 (centres undefined),26 µM
6,C1=CC2(C=CC13O[C@H](C1CCCCC1)[C@@H](C1CCCCC1)O3)O[C@H](C1CCCCC1)[C@@H](C1CCCCC1)O2,> 50 µM
7,CC(OC(=O)C(Cc1ccccc1)NC(=O)C(Cc1ccccc1)NC(=O)OC(C)(C)C)C(=O)OCc1ccccc1 (stereo not drawn) (Boc-Phe-Phe-[Lac]-OBn; configuration not given here),> 100 µM

# Tested on: K-562 leukemia
# Experiment: NCI-60 cell line screen, 48 h
row,Compound,TGI
1,CC1=NN(c2nc(N)nc(/C(C#N)=C/c3ccccc3O)n2)C(C)(C)C1,> 100 µM
2,COc1ccc(NC(=S)Nc2cc(C)cc(C)n2)cc1,> 100 µM
3,CN(C)c1ccc(C2CC(c3ccc4ccccc4c3O)=NN2)cc1 (centres undefined),90.2 µM
4,CN1CCc2cc3c(c4c2C1C(O)c1ccccc1-4)OCO3 (centres undefined),63.5 µM
5,C1=CC2(C=CC13O[C@H](C1CCCCC1)[C@@H](C1CCCCC1)O3)O[C@H](C1CCCCC1)[C@@H](C1CCCCC1)O2,> 50 µM
6,CC(OC(=O)C(Cc1ccccc1)NC(=O)C(Cc1ccccc1)NC(=O)OC(C)(C)C)C(=O)OCc1ccccc1 (stereo not drawn) (Boc-Phe-Phe-[Lac]-OBn; configuration not given here),> 100 µM

# Tested on: KM12 colon
# Experiment: NCI-60 cell line screen, 48 h
row,Compound,TGI
1,CC1=NN(c2nc(N)nc(/C(C#N)=C/c3ccccc3O)n2)C(C)(C)C1,31.4 µM
2,Cc1c(-c2ccc(O)cc2)n(CCCCCCNCCOC(=O)NCCCc2ccc(N(CCCl)CCCl)cc2)c2ccc(O)cc12,3.75 µM
3,COc1ccc(NC(=S)Nc2cc(C)cc(C)n2)cc1,> 100 µM
4,CN(C)c1ccc(C2CC(c3ccc4ccccc4c3O)=NN2)cc1 (centres undefined),> 100 µM
5,CN1CCc2cc3c(c4c2C1C(O)c1ccccc1-4)OCO3 (centres undefined),24 µM
6,C1=CC2(C=CC13O[C@H](C1CCCCC1)[C@@H](C1CCCCC1)O3)O[C@H](C1CCCCC1)[C@@H](C1CCCCC1)O2,> 50 µM
7,CC(OC(=O)C(Cc1ccccc1)NC(=O)C(Cc1ccccc1)NC(=O)OC(C)(C)C)C(=O)OCc1ccccc1 (stereo not drawn) (Boc-Phe-Phe-[Lac]-OBn; configuration not given here),> 100 µM

# Tested on: LOX IMVI melanoma
# Experiment: NCI-60 cell line screen, 48 h
row,Compound,TGI
1,Cc1c(-c2ccc(O)cc2)n(CCCCCCNCCOC(=O)NCCCc2ccc(N(CCCl)CCCl)cc2)c2ccc(O)cc12,2.97 µM
2,COc1ccc(NC(=S)Nc2cc(C)cc(C)n2)cc1,> 100 µM
3,CN1CCc2cc3c(c4c2C1C(O)c1ccccc1-4)OCO3 (centres undefined),25.1 µM
4,C1=CC2(C=CC13O[C@H](C1CCCCC1)[C@@H](C1CCCCC1)O3)O[C@H](C1CCCCC1)[C@@H](C1CCCCC1)O2,> 50 µM

# Tested on: M14 melanoma
# Experiment: NCI-60 cell line screen, 48 h
row,Compound,TGI
1,CC1=NN(c2nc(N)nc(/C(C#N)=C/c3ccccc3O)n2)C(C)(C)C1,36.4 µM
2,Cc1c(-c2ccc(O)cc2)n(CCCCCCNCCOC(=O)NCCCc2ccc(N(CCCl)CCCl)cc2)c2ccc(O)cc12,3 µM
3,COc1ccc(NC(=S)Nc2cc(C)cc(C)n2)cc1,> 100 µM
4,CN(C)c1ccc(C2CC(c3ccc4ccccc4c3O)=NN2)cc1 (centres undefined),> 100 µM
5,CN1CCc2cc3c(c4c2C1C(O)c1ccccc1-4)OCO3 (centres undefined),19.5 µM
6,C1=CC2(C=CC13O[C@H](C1CCCCC1)[C@@H](C1CCCCC1)O3)O[C@H](C1CCCCC1)[C@@H](C1CCCCC1)O2,> 50 µM
7,CC(OC(=O)C(Cc1ccccc1)NC(=O)C(Cc1ccccc1)NC(=O)OC(C)(C)C)C(=O)OCc1ccccc1 (stereo not drawn) (Boc-Phe-Phe-[Lac]-OBn; configuration not given here),> 100 µM

# Tested on: MALME-3M melanoma
# Experiment: NCI-60 cell line screen, 48 h
row,Compound,TGI
1,CC1=NN(c2nc(N)nc(/C(C#N)=C/c3ccccc3O)n2)C(C)(C)C1,33.8 µM
2,Cc1c(-c2ccc(O)cc2)n(CCCCCCNCCOC(=O)NCCCc2ccc(N(CCCl)CCCl)cc2)c2ccc(O)cc12,3.12 µM
3,COc1ccc(NC(=S)Nc2cc(C)cc(C)n2)cc1,> 100 µM
4,CN(C)c1ccc(C2CC(c3ccc4ccccc4c3O)=NN2)cc1 (centres undefined),> 100 µM
5,CN1CCc2cc3c(c4c2C1C(O)c1ccccc1-4)OCO3 (centres undefined),23.2 µM
6,C1=CC2(C=CC13O[C@H](C1CCCCC1)[C@@H](C1CCCCC1)O3)O[C@H](C1CCCCC1)[C@@H](C1CCCCC1)O2,> 50 µM
7,CC(OC(=O)C(Cc1ccccc1)NC(=O)C(Cc1ccccc1)NC(=O)OC(C)(C)C)C(=O)OCc1ccccc1 (stereo not drawn) (Boc-Phe-Phe-[Lac]-OBn; configuration not given here),> 100 µM

# Tested on: MCF7 breast
# Experiment: NCI-60 cell line screen, 48 h
row,Compound,TGI
1,CC1=NN(c2nc(N)nc(/C(C#N)=C/c3ccccc3O)n2)C(C)(C)C1,64.9 µM
2,Cc1c(-c2ccc(O)cc2)n(CCCCCCNCCOC(=O)NCCCc2ccc(N(CCCl)CCCl)cc2)c2ccc(O)cc12,2.23 µM
3,COc1ccc(NC(=S)Nc2cc(C)cc(C)n2)cc1,> 100 µM
4,CN(C)c1ccc(C2CC(c3ccc4ccccc4c3O)=NN2)cc1 (centres undefined),> 100 µM
5,CN1CCc2cc3c(c4c2C1C(O)c1ccccc1-4)OCO3 (centres undefined),19.3 µM
6,C1=CC2(C=CC13O[C@H](C1CCCCC1)[C@@H](C1CCCCC1)O3)O[C@H](C1CCCCC1)[C@@H](C1CCCCC1)O2,> 50 µM
7,CC(OC(=O)C(Cc1ccccc1)NC(=O)C(Cc1ccccc1)NC(=O)OC(C)(C)C)C(=O)OCc1ccccc1 (stereo not drawn) (Boc-Phe-Phe-[Lac]-OBn; configuration not given here),54.6 µM

# Tested on: MDA-MB-231 breast
# Experiment: NCI-60 cell line screen, 48 h
row,Compound,TGI
1,CC1=NN(c2nc(N)nc(/C(C#N)=C/c3ccccc3O)n2)C(C)(C)C1,40.7 µM
2,Cc1c(-c2ccc(O)cc2)n(CCCCCCNCCOC(=O)NCCCc2ccc(N(CCCl)CCCl)cc2)c2ccc(O)cc12,3.38 µM
3,COc1ccc(NC(=S)Nc2cc(C)cc(C)n2)cc1,> 100 µM
4,CN(C)c1ccc(C2CC(c3ccc4ccccc4c3O)=NN2)cc1 (centres undefined),> 100 µM
5,CN1CCc2cc3c(c4c2C1C(O)c1ccccc1-4)OCO3 (centres undefined),22.5 µM
6,C1=CC2(C=CC13O[C@H](C1CCCCC1)[C@@H](C1CCCCC1)O3)O[C@H](C1CCCCC1)[C@@H](C1CCCCC1)O2,> 50 µM
7,CC(OC(=O)C(Cc1ccccc1)NC(=O)C(Cc1ccccc1)NC(=O)OC(C)(C)C)C(=O)OCc1ccccc1 (stereo not drawn) (Boc-Phe-Phe-[Lac]-OBn; configuration not given here),> 100 µM

# Tested on: MDA-MB-435
# Experiment: NCI-60 cell line screen, 48 h
row,Compound,TGI
1,CC1=NN(c2nc(N)nc(/C(C#N)=C/c3ccccc3O)n2)C(C)(C)C1,32.9 µM
2,Cc1c(-c2ccc(O)cc2)n(CCCCCCNCCOC(=O)NCCCc2ccc(N(CCCl)CCCl)cc2)c2ccc(O)cc12,3.21 µM
3,COc1ccc(NC(=S)Nc2cc(C)cc(C)n2)cc1,> 100 µM
4,CN(C)c1ccc(C2CC(c3ccc4ccccc4c3O)=NN2)cc1 (centres undefined),> 100 µM
5,CN1CCc2cc3c(c4c2C1C(O)c1ccccc1-4)OCO3 (centres undefined),28 µM
6,C1=CC2(C=CC13O[C@H](C1CCCCC1)[C@@H](C1CCCCC1)O3)O[C@H](C1CCCCC1)[C@@H](C1CCCCC1)O2,> 50 µM
7,CC(OC(=O)C(Cc1ccccc1)NC(=O)C(Cc1ccccc1)NC(=O)OC(C)(C)C)C(=O)OCc1ccccc1 (stereo not drawn) (Boc-Phe-Phe-[Lac]-OBn; configuration not given here),> 100 µM

# Tested on: MDA-N
# Experiment: NCI-60 cell line screen, 48 h
row,Compound,TGI
1,CC1=NN(c2nc(N)nc(/C(C#N)=C/c3ccccc3O)n2)C(C)(C)C1,30.7 µM
2,Cc1c(-c2ccc(O)cc2)n(CCCCCCNCCOC(=O)NCCCc2ccc(N(CCCl)CCCl)cc2)c2ccc(O)cc12,3.47 µM
3,COc1ccc(NC(=S)Nc2cc(C)cc(C)n2)cc1,> 100 µM
4,CN(C)c1ccc(C2CC(c3ccc4ccccc4c3O)=NN2)cc1 (centres undefined),> 100 µM
5,CN1CCc2cc3c(c4c2C1C(O)c1ccccc1-4)OCO3 (centres undefined),16.1 µM
6,C1=CC2(C=CC13O[C@H](C1CCCCC1)[C@@H](C1CCCCC1)O3)O[C@H](C1CCCCC1)[C@@H](C1CCCCC1)O2,> 50 µM
7,CC(OC(=O)C(Cc1ccccc1)NC(=O)C(Cc1ccccc1)NC(=O)OC(C)(C)C)C(=O)OCc1ccccc1 (stereo not drawn) (Boc-Phe-Phe-[Lac]-OBn; configuration not given here),> 100 µM

# Tested on: MOLT-4 leukemia
# Experiment: NCI-60 cell line screen, 48 h
row,Compound,TGI
1,CC1=NN(c2nc(N)nc(/C(C#N)=C/c3ccccc3O)n2)C(C)(C)C1,> 100 µM
2,Cc1c(-c2ccc(O)cc2)n(CCCCCCNCCOC(=O)NCCCc2ccc(N(CCCl)CCCl)cc2)c2ccc(O)cc12,2.92 µM
3,COc1ccc(NC(=S)Nc2cc(C)cc(C)n2)cc1,> 100 µM
4,CN(C)c1ccc(C2CC(c3ccc4ccccc4c3O)=NN2)cc1 (centres undefined),92 µM
5,CN1CCc2cc3c(c4c2C1C(O)c1ccccc1-4)OCO3 (centres undefined),37.6 µM
6,C1=CC2(C=CC13O[C@H](C1CCCCC1)[C@@H](C1CCCCC1)O3)O[C@H](C1CCCCC1)[C@@H](C1CCCCC1)O2,> 50 µM
7,CC(OC(=O)C(Cc1ccccc1)NC(=O)C(Cc1ccccc1)NC(=O)OC(C)(C)C)C(=O)OCc1ccccc1 (stereo not drawn) (Boc-Phe-Phe-[Lac]-OBn; configuration not given here),> 100 µM

# Tested on: NCI-H226 lung
# Experiment: NCI-60 cell line screen, 48 h
row,Compound,TGI
1,CC1=NN(c2nc(N)nc(/C(C#N)=C/c3ccccc3O)n2)C(C)(C)C1,37.8 µM
2,COc1ccc(NC(=S)Nc2cc(C)cc(C)n2)cc1,> 100 µM
3,CN(C)c1ccc(C2CC(c3ccc4ccccc4c3O)=NN2)cc1 (centres undefined),> 100 µM
4,C1=CC2(C=CC13O[C@H](C1CCCCC1)[C@@H](C1CCCCC1)O3)O[C@H](C1CCCCC1)[C@@H](C1CCCCC1)O2,> 50 µM
5,CC(OC(=O)C(Cc1ccccc1)NC(=O)C(Cc1ccccc1)NC(=O)OC(C)(C)C)C(=O)OCc1ccccc1 (stereo not drawn) (Boc-Phe-Phe-[Lac]-OBn; configuration not given here),> 100 µM
